Experimental data taken from patent US11987648B2, “Cyclohexapeptides as selective somatostatin SST5 receptor agonists” (Heptares Therapeutics Limited, priority 2018, dated 2024).
*1 amine or outer side, *2 acyl side, *3 side chain or, on linkers, in order; H or OH if unused. Where a SMILES comes first, the peptide text is derived from it. Side-chain parts run from the residue outwards. [ ]: non-standard residue; d: D form. The star is where a group is joined. Ala(piperidin-4-yl) = O=C([C@H](CC1CCN([*:3])CC1)N[*:1])[*:2]; X2 = O=C([C@@H]1C[C@@H](Oc2ccncc2)CN1[*:1])[*:2]; Ala(piperazin-1-yl) = N[C@@H](CN1CCNCC1)C(=O)O; X5 = CN([C@@H](CC1CCNCC1)C(=O)[*:2])[*:1]; Phe(4-Cl) = N[C@@H](Cc1ccc(Cl)cc1)C(=O)O; Morpholine(3S-CO) = O=C(O)[C@@H]1COCCN1; Ethylenediamine = C(CN[*:2])N[*:1]; d(hPhe) = N[C@H](CCc1ccccc1)C(=O)O; Hyp = O=C(O)[C@@H]1C[C@@H](O)CN1; hPhe = N[C@@H](CCc1ccccc1)C(=O)O; 3Pal = N[C@@H](Cc1cccnc1)C(=O)O; Cyclohexylmethyl = C1CCC(C*)CC1; Tic = O=C(O)[C@@H]1Cc2ccccc2CN1; Phg = N[C@H](C(=O)O)c1ccccc1; CO = O=C([*:1])[*:2]; Bn = c1ccc(C*)cc1

Experiments:
SST2 = SST2 (Homo sapiens, UniProt P30874); assay: Hit Hunter cAMP XS+ assay, SST2 activation via Gi (reduction of forskolin-stimulated cAMP); format: cell-based; settings: for Emax: read-out: SST2 (EMax); for EC50: reduction of forskolin-stimulated cAMP, 4-parameter logistic fit, read-out: SST2 pEC50 (converted)
Description: (§1) A Hit Hunter® cAMP XS+ assay was used to monitor activation of the SST2 and SST5 via the Gi G protein. Cells were pre-stimulated with forskolin to elicit a cAMP response and the potency and efficacy of somatostatin agonists to reduce cAMP was measured. Briefly cells (10,000 cells/well) were incubated (37° C.; 30 min) with compound ([…]) in media (2:1 HBSS/11 mM Hepes: cAMP XS+Ab reagent) in the presence of EC80 forskolin ([…] and 15 μM SST5). Signal was detected through incubation with 20 μL cAMP XS+ED/CL lysis cocktail ([…]; RT) followed by incubation with […] cAMP XS+EA reagent (180 min; RT). Microplates were read with a PerkinElmer Envision™ instrument for chemiluminescent signal detection.

SST5 = SST5 (Homo sapiens, UniProt P35346); assay: Hit Hunter cAMP XS+ assay, SST5 activation via Gi (reduction of forskolin-stimulated cAMP); format: cell-based; settings: for Emax: read-out: SST5 (EMax); for EC50: reduction of forskolin-stimulated cAMP, 4-parameter logistic fit, read-out: SST5 pEC50 (converted); for SST5/2 Selectivity: selectivity for SST5 over SST2
Description: as §1

Sequence of SST5 (P35346 whole entry): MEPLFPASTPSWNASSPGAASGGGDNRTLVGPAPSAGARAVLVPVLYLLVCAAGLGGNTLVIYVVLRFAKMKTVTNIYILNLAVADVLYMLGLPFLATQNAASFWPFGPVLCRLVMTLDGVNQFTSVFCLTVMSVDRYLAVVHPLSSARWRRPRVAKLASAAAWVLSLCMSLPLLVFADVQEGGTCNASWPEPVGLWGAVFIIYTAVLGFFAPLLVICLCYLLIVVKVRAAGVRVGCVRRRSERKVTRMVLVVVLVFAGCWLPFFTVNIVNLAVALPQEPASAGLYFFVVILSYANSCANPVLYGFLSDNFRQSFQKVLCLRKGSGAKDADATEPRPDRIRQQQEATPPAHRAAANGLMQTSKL
Sequence of SST2 (P30874 whole entry): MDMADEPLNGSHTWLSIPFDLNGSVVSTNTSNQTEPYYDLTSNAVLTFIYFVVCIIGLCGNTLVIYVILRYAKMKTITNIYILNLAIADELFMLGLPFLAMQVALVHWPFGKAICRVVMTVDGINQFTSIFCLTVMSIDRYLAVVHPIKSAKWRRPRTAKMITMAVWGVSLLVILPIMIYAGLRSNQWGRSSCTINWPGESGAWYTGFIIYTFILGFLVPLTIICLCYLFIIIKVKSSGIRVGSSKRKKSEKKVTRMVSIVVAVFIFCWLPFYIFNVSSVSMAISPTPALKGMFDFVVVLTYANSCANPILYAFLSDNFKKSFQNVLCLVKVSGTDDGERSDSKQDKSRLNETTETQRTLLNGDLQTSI

NCCNC(=O)O[C@@H]1C[C@H]2C(=O)N[C@@H](CCc3ccccc3)C(=O)N[C@@H](Cc3c[nH]c4ccccc34)C(=O)N[C@@H](CC3CCNCC3)C(=O)N[C@@H](Cc3ccc(OCc4ccccc4)cc3)C(=O)N3Cc4ccccc4C[C@H]3C(=O)N2C1 [Example 19] (cyclo([Hyp]([CO-Ethylenediamine])[hPhe]W[Ala(piperidin-4-yl)]Y(Bn)[Tic]))
Emax (SST2): 75.5% | EC50 (SST2): 100 nM | Emax (SST5): 99.8% | EC50 (SST5): 20 nM | SST5/2 Selectivity (SST5): 5.5

O=C1N[C@@H](Cc2cccnc2)C(=O)N2C[C@H](Oc3ccncc3)C[C@H]2C(=O)N[C@H](CCc2ccccc2)C(=O)N[C@H](Cc2c[nH]c3ccccc23)C(=O)N[C@@H](CC2CCNCC2)C(=O)N[C@H]1Cc1ccc(OCc2ccccc2)cc1 [Example 20] (cyclo([3Pal][X2][d(hPhe)][dW][Ala(piperidin-4-yl)]Y(Bn)))
Emax (SST2): 98% | EC50 (SST2): 3160 nM | Emax (SST5): 99.6% | EC50 (SST5): 6.31 nM | SST5/2 Selectivity (SST5): 418.4

O=C1N[C@@H](Cc2cccnc2)C(=O)N2C[C@H](Oc3ccncc3)C[C@H]2C(=O)N[C@@H](CCc2ccccc2)C(=O)N[C@H](Cc2c[nH]c3ccccc23)C(=O)N[C@@H](CC2CCNCC2)C(=O)N[C@H]1Cc1ccc(OCc2ccccc2)cc1 [Example 22] (cyclo([3Pal][X2][hPhe][dW][Ala(piperidin-4-yl)]Y(Bn)))
Emax (SST2): 100% | EC50 (SST2): 79.4 nM | Emax (SST5): 102% | EC50 (SST5): 0.501 nM | SST5/2 Selectivity (SST5): 142.6

O=C1N[C@@H](Cc2ccc(OCc3ccccc3)cc2)C(=O)N[C@@H](Cc2cccnc2)C(=O)N2C[C@H](Oc3ccncc3)C[C@H]2C(=O)N[C@@H](CCc2ccccc2)C(=O)N[C@@H](Cc2c[nH]c3ccccc23)C(=O)N[C@H]1CC1CCNCC1 [Example 23] (cyclo([3Pal][X2][hPhe]W[Ala(piperidin-4-yl)]Y(Bn)))
Emax (SST2): 96.6% | EC50 (SST2): 631 nM | Emax (SST5): 101% | EC50 (SST5): 3.98 nM | SST5/2 Selectivity (SST5): 148.7

O=C1N[C@@H](Cc2ccc(OCc3ccccc3)cc2)C(=O)N[C@@H](Cc2cccnc2)C(=O)N2C[C@H](Oc3ccncc3)C[C@H]2C(=O)N[C@H](CCc2ccccc2)C(=O)N[C@@H](Cc2c[nH]c3ccccc23)C(=O)N[C@H]1CC1CCNCC1 [Example 24] (cyclo([3Pal][X2][d(hPhe)]W[Ala(piperidin-4-yl)]Y(Bn)))
Emax (SST2): 46.8% | EC50 (SST2): > 10000 nM | Emax (SST5): 102% | EC50 (SST5): 100 nM | SST5/2 Selectivity (SST5): 110.6

NCCNC(=O)O[C@@H]1C[C@H]2C(=O)N[C@H](CCc3ccccc3)C(=O)N[C@H](Cc3c[nH]c4ccccc34)C(=O)N[C@@H](CN3CCNCC3)C(=O)N[C@@H](Cc3ccc(OCc4ccccc4)cc3)C(=O)N3Cc4ccccc4C[C@H]3C(=O)N2C1 [Example 25] (cyclo([Hyp]([CO-Ethylenediamine])[d(hPhe)][dW][Ala(piperazin-1-yl)]Y(Bn)[Tic]))
Emax (SST2): 100% | EC50 (SST2): 200 nM | Emax (SST5): 102% | EC50 (SST5): 0.126 nM | SST5/2 Selectivity (SST5): 1351.8

NCCNC(=O)O[C@@H]1C[C@H]2C(=O)N[C@@H](CCc3ccccc3)C(=O)N[C@H](Cc3c[nH]c4ccccc34)C(=O)N[C@@H](CN3CCNCC3)C(=O)N[C@@H](Cc3ccc(OCc4ccccc4)cc3)C(=O)N3Cc4ccccc4C[C@H]3C(=O)N2C1 [Example 26] (cyclo([Hyp]([CO-Ethylenediamine])[hPhe][dW][Ala(piperazin-1-yl)]Y(Bn)[Tic]))
Emax (SST2): 66.6% | EC50 (SST2): 501 nM | Emax (SST5): 99.1% | EC50 (SST5): 0.126 nM | SST5/2 Selectivity (SST5): 4067.3

NCCNC(=O)O[C@@H]1C[C@H]2C(=O)N[C@@H](c3ccccc3)C(=O)N[C@H](Cc3c[nH]c4ccccc34)C(=O)N[C@@H](CN3CCNCC3)C(=O)N[C@@H](Cc3ccc(OCC4CCCCC4)cc3)C(=O)N[C@@H](Cc3ccccc3)C(=O)N2C1 [Example 27] (cyclo(F[Hyp]([CO-Ethylenediamine])[Phg][dW][Ala(piperazin-1-yl)]Y(Cyclohexylmethyl)))
Emax (SST2): 90.7% | EC50 (SST2): 398 nM | Emax (SST5): 99.4% | EC50 (SST5): 2.51 nM | SST5/2 Selectivity (SST5): 159.6

NCCNC(=O)O[C@@H]1C[C@H]2C(=O)N[C@@H](CCc3ccccc3)C(=O)N[C@H](Cc3c[nH]c4ccccc34)C(=O)N[C@@H](CC3CCNCC3)C(=O)N[C@@H](Cc3ccc(OCc4ccccc4)cc3)C(=O)N[C@@H](Cc3ccccc3)C(=O)N2C1 [Example 28] (cyclo(F[Hyp]([CO-Ethylenediamine])[hPhe][dW][Ala(piperidin-4-yl)]Y(Bn)))
Emax (SST2): 99.6% | EC50 (SST2): 7.94 nM | Emax (SST5): 100% | EC50 (SST5): 0.0794 nM | SST5/2 Selectivity (SST5): 101.0

NCCNC(=O)O[C@@H]1C[C@H]2C(=O)N[C@@H](CCc3ccccc3)C(=O)N[C@@H](Cc3c[nH]c4ccccc34)C(=O)N[C@@H](CC3CCNCC3)C(=O)N[C@@H](Cc3ccc(OCc4ccccc4)cc3)C(=O)N[C@@H](Cc3ccccc3)C(=O)N2C1 [Example 29] (cyclo(F[Hyp]([CO-Ethylenediamine])[hPhe]W[Ala(piperidin-4-yl)]Y(Bn)))
Emax (SST2): 89.6% | EC50 (SST2): 794 nM | Emax (SST5): 100% | EC50 (SST5): 1 nM | SST5/2 Selectivity (SST5): 663.6

NCCNC(=O)O[C@@H]1C[C@H]2C(=O)N[C@H](CCc3ccccc3)C(=O)N[C@H](Cc3c[nH]c4ccccc34)C(=O)N[C@@H](CN3CCNCC3)C(=O)N[C@@H](Cc3ccc(OCc4ccccc4)cc3)C(=O)N[C@@H](Cc3ccc(Cl)cc3)C(=O)N2C1 [Example 30] (cyclo([Hyp]([CO-Ethylenediamine])[d(hPhe)][dW][Ala(piperazin-1-yl)]Y(Bn)[Phe(4-Cl)]))
Emax (SST2): 100% | EC50 (SST2): 251 nM | Emax (SST5): 101% | EC50 (SST5): 1 nM | SST5/2 Selectivity (SST5): 214.2

O=C1N[C@@H](Cc2ccc(OCc3ccccc3)cc2)C(=O)N2Cc3ccccc3C[C@H]2C(=O)N2CCOC[C@H]2C(=O)N[C@@H](CCc2ccccc2)C(=O)N[C@H](Cc2c[nH]c3ccccc23)C(=O)N[C@H]1CN1CCNCC1 [Example 31] (cyclo([Tic][Morpholine(3S-CO)][hPhe][dW][Ala(piperazin-1-yl)]Y(Bn)))
Emax (SST2): 99.7% | EC50 (SST2): 200 nM | Emax (SST5): 88.7% | EC50 (SST5): 0.0631 nM | SST5/2 Selectivity (SST5): 3441.5

CN1C(=O)[C@@H](Cc2c[nH]c3ccccc23)NC(=O)[C@@H](CCc2ccccc2)NC(=O)[C@@H]2COCCN2C(=O)[C@@H]2Cc3ccccc3CN2C(=O)[C@H](Cc2ccc(OCc3ccccc3)cc2)NC(=O)[C@@H]1CC1CCNCC1 [Example 32] (cyclo([Tic][Morpholine(3S-CO)][d(hPhe)][dW][X5]Y(Bn)))
Emax (SST2): 98.8% | EC50 (SST2): 100 nM | Emax (SST5): 99.9% | EC50 (SST5): 1.26 nM | SST5/2 Selectivity (SST5): 66.8

NCCNC(=O)O[C@@H]1C[C@H]2C(=O)N[C@H](CCc3ccccc3)C(=O)N[C@@H](Cc3c[nH]c4ccccc34)C(=O)N[C@@H](CN3CCNCC3)C(=O)N[C@@H](Cc3ccc(OCc4ccccc4)cc3)C(=O)N[C@@H](Cc3cccnc3)C(=O)N2C1 [Example 33] (cyclo([3Pal][Hyp]([CO-Ethylenediamine])[d(hPhe)]W[Ala(piperazin-1-yl)]Y(Bn)))
Emax (SST2): 13.4% | EC50 (SST2): > 10000 nM | Emax (SST5): 107% | EC50 (SST5): 39.8 nM | SST5/2 Selectivity (SST5): 279.1

NCCNC(=O)O[C@@H]1C[C@H]2C(=O)N[C@@H](CCc3ccccc3)C(=O)N[C@@H](Cc3c[nH]c4ccccc34)C(=O)N[C@@H](CN3CCNCC3)C(=O)N[C@@H](Cc3ccc(OCc4ccccc4)cc3)C(=O)N[C@@H](Cc3cccnc3)C(=O)N2C1 [Example 34] (cyclo([3Pal][Hyp]([CO-Ethylenediamine])[hPhe]W[Ala(piperazin-1-yl)]Y(Bn)))
Emax (SST2): 49.2% | EC50 (SST2): 3980 nM | Emax (SST5): 102% | EC50 (SST5): 1 nM | SST5/2 Selectivity (SST5): 3271.8

NCCNC(=O)O[C@@H]1C[C@H]2C(=O)N[C@H](CCc3ccccc3)C(=O)N[C@@H](Cc3c[nH]c4ccccc34)C(=O)N[C@@H](CN3CCNCC3)C(=O)N[C@@H](Cc3ccc(OCc4ccccc4)cc3)C(=O)N3Cc4ccccc4C[C@H]3C(=O)N2C1 [Example 35] (cyclo([Hyp]([CO-Ethylenediamine])[d(hPhe)]W[Ala(piperazin-1-yl)]Y(Bn)[Tic]))
Emax (SST2): 27.8% | EC50 (SST2): > 10000 nM | Emax (SST5): 107% | EC50 (SST5): 1 nM | SST5/2 Selectivity (SST5): 10046.0

NCCNC(=O)O[C@@H]1C[C@H]2C(=O)N[C@@H](CCc3ccccc3)C(=O)N[C@@H](Cc3c[nH]c4ccccc34)C(=O)N[C@@H](CN3CCNCC3)C(=O)N[C@@H](Cc3ccc(OCc4ccccc4)cc3)C(=O)N3Cc4ccccc4C[C@H]3C(=O)N2C1 [Example 36] (cyclo([Hyp]([CO-Ethylenediamine])[hPhe]W[Ala(piperazin-1-yl)]Y(Bn)[Tic]))
Emax (SST2): 63.4% | EC50 (SST2): 501 nM | Emax (SST5): 102% | EC50 (SST5): 1.26 nM | SST5/2 Selectivity (SST5): 384.3

NCCNC(=O)O[C@@H]1C[C@H]2C(=O)N[C@@H](CCc3ccccc3)C(=O)N[C@H](Cc3c[nH]c4ccccc34)C(=O)N[C@@H](CN3CCNCC3)C(=O)N[C@@H](Cc3ccc(OCc4ccccc4)cc3)C(=O)N3CCC[C@H]3C(=O)N2C1 [Example 37] (cyclo([Hyp]([CO-Ethylenediamine])[hPhe][dW][Ala(piperazin-1-yl)]Y(Bn)P))
Emax (SST2): 75.8% | EC50 (SST2): 6310 nM | Emax (SST5): 108% | EC50 (SST5): 2 nM | SST5/2 Selectivity (SST5): 2927.5
